Values joined by “and” are separate entries in the source; they are usually repeats but may differ in a detail not shown here. Equal values may be shown once.
How the values were obtained:
[1] = 9-day body weight, feed consumption and gain:feed (Example 1); conditions: in words
Method: Newly hatched Petersen X Arbor Acre cockerels obtained from a commercial hatchery were used. Animals were housed in electrically heated Petersime battery brooders with wire-mesh floors located in a room in which the temperature was maintained at 22° C., fluorescent lights were on 24 hours each day in the room and the cages, and sunlight was present during the day from large windows. No attempt was made to limit the natural production of vitamin D3. Feed and water were available to the chickens at all times.
(§1) Ten newly hatched birds were randomly placed in each section of the Petersime batteries until the birds were nine days old. The measurements described below were calculated on a pen basis; all statistical analyses were conducted on pen averages. Blood samples were taken by cardiac puncture with heparinized syringes from one randomly chosen bird from each pen on the ninth day before weighing the birds.
At nine days of age, pen body weights were obtained for all birds and their feed consumption was recorded. […] Briefly, using a three week old chicken as the reference animal, a score of zero indicates normal cartilage which is narrow with little irregularities. […] Deep irregularities are apparent. A score of three indicates a large mass of cartilage in the proximal end of the tibia. The birds were also scored for phosphorus deficient rickets at the same time they were scored for tibial dyschondroplasia. Chickens which had normal proliferating prehypertrophied zone and a lengthened metaphyseal primary spongiosa were classified as phosphorus deficient rickets. The left tibia was removed for bone ash determination on the fat-free bone.

[2] = blood plasma total calcium and dialyzable phosphorus; conditions: in words, Exp 1
Method: as §1

[3] = test system: phosphorus deficient rickets; assay: phosphorus deficient rickets (Example 1); conditions: in words, Exp 1
From the text: The birds were also scored for phosphorus deficient rickets at the same time they were scored for tibial dyschondroplasia. Chickens which had normal proliferating prehypertrophied zone and a lengthened metaphyseal primary spongiosa were classified as phosphorus deficient rickets.
Ri is an abbreviation for rickets incidence.

[4] = test system: phytate phosphorus; assay: phytate (IP4, IP5, IP6) in feces, ferric chloride and HPLC procedures; format: in vivo, chicken (Petersen X Arbor Acre cockerels)
[5] = test system: tibial dyschondroplasia; conditions: chickens, dietary level; cited from earlier work
[6] = test system: bone ash; assay: bone ash of left tibia (Example 1); conditions: in words
From the text: The left tibia was removed for bone ash determination on the fat-free bone.

[7] = test system: conversion of 25(OH)D3 to 1,25(OH)2 D3; conditions: chickens made acidotic; cited from earlier work

Structure (SMILES): O.O=P([O-])([O-])O.[Na+].[Na+] [P, Na2 HPO4 H2 O]
- nine day weight ([1]; Example 1): increased nine day weights
- gain:feed ratio ([1]; Exp 1): increased
- blood plasma phosphorus [2]: increased
- incidence of phosphorus-deficient rickets [3]: decreased
- Feces excreted ([4]; in vivo): 451 and 602 and 606
- IP5 excretion, percent of total phytin phosphorus ([4]; in vivo): 5.76% and 2.70% and 6.87%
- IP6 excretion, percent of total phytin phosphorus ([4]; in vivo): 46.92% and 37.06% and 46.00%
- IP6 phytate phosphorus in feces by HPLC ([4]; in vivo): 3.99 mg/g and 3.03 mg/g and 3.68 mg/g
- Phytate phosphorus retention, FeCl3 ([4]; in vivo): 47 and 68 and 51
- Phytate phosphorus retention, HPLC ([4]; in vivo): 47 and 60 and 46
- Phytin phosphorus retained (100 - total excreted) ([4]; in vivo): 46.7% and 59.5% and 45.9%
- Total phytate phosphorus in feces by HPLC ([4]; in vivo): 4.54 mg/g and 3.32 mg/g and 4.35 mg/g
- Total phytin phosphorus excreted ([4]; in vivo): 53.4% and 40.6% and 54.4%
- amount of phosphorus in the feces ([4]; in words, Exp 1): approximately the same
- tibial dyschondroplasia (effect of dietary factor) [5]: accentuate the development of the lesions
- bone ash [6]: increased

Structure (SMILES): Cl.N [ammonium chloride]
- conversion of 25(OH)D3 to 1,25(OH)2 D3 [7]: reduced conversion
